The subject of data set [1] is rats and mice. Conditions: cited from earlier work.
Data set [2] deals with ganglionic nicotinic receptors. The note with it: agonist of ganglionic nicotinic receptors; cited from earlier work.
The test system of data set [3] is animal studies. The note with it: cited from earlier work.
In data set [4] the test system is central nicotinic receptor subtypes. Conditions: cited from earlier work.
In data set [5] the test system is male and female Sprague Dawley rats. Put plainly: Intraplantar capsaicin mechanical hyperalgesia, hindpaw withdrawal threshold with von Frey filaments, intrathecal injection. Type of data set: in vivo, rat. Conditions: for average % reduction in withdrawal threshold over the 2 hours after capsaicin injection: % change from pre-capsaicin threshold, capsaicin 30 μg intraplantar, 50 μg i.t. As to the method:
Adult male and female Sprague Dawley rats were prepared with insertion of intrathecal catheters as described above. Capsaicin (8-methyl-N-vanillyl nonamide) was prepared in a concentration of 30 μg in 10 μl. Briefly, capsaicin powder was first dissolved in Tween 80, then in isotonic saline and heated to 70° C. The solution obtained was filtered and stored in sterile glass vials. Each group of rats represents 6 males and 6 females tested at the same time and each animal received only one injection in the left plantar surface of the hindpaw. Each animal was lightly anesthetized under halothane and immediately after immobility, received intradermal capsaicin, 30 μg injected through a 28 G needle, in the center of the plantar surface. This dose was chosen because it produces mechanical hyperalgesia lasting at least 2 hours (Gilchrist, H. D., Allard, B. L., and Simone, D. A. Enhanced withdrawal responses to heat and mechanical stimuli following intraplantar injection of capsaicin in rats. Pain 1996;67: 179-188).
Hindpaw withdrawal thresholds were tested before capsaicin injection and every 30 minutes thereafter for 2 hours, using von Frey filaments and the up-down method described above. Care was taken to avoid direct contact of the injection point when measuring withdrawal threshold with the filaments. Intrathecal saline, or (E)-N-methyl-4-(3-pyridinyl)-3-butene-1-amine(50 μg) was injected prior to capsaicin.
Intraplantar injection of capsaicin produced a rapid onset, sustained reduction in withdrawal threshold in both sexes. However, male and female control animals differed in withdrawal threshold at baseline and after capsaicin, and the sexes were therefore compared by % change from pre-capsaicin threshold. By this analysis, the average % reduction in withdrawal threshold over the 2 hours after capsaicin injection was 74+/-5.3% in females and 64+/-6.7% in males (p=0.47, NS).

Data set [6] deals with neuropathic rat hindlimb. Nature of the data set: Neuropathic pain model (injury of spinal nerves L5 and L6), allodynia measured with von Frey filaments, intrathecal injection. Type of data set: in vivo. The note with it: one week after nerve injury. The text has this:
Analgesic potency of compounds of the present invention can also be tested in animal models of neuropathic or neurogenic pain. One such model resembles the human condition termed causalgia or reflex sympathetic dystrophy (RSD) secondary to injury of a peripheral nerve. This condition is characterized by hyperesthesia (enhanced sensitivity to a natural stimulus), hyperalgesia (abnormal sensitivity to pain), allodynia (hypersensitivity and pain to normally non-painful stimuli, either thermal or tactile), and spontaneous burning pain. In humans, neuropathic pain tends to be chronic and may be debilitating.
Briefly, in the model used, rats are subjected to a surgical procedure, described by Kim et al. (Kim, S. H. and Chung, J. M. (1992) Pain 50:355-363), designed to reproducibly injure peripheral nerves (spinal nerves L5 and L6). These rats develop a hyperesthetic state, which can be measured, using one or more paradigms known in the art. Here, allodynia was measured by stimulation of neuropathic rat hindlimb using nylon filaments having graded degrees of stiffness.
Sex differences in response to (E)-N-methyl-4-(3-pyridinyl)-3-butene-1-amine were tested using the assay described above. Hypersensitivity to light touch (withdrawal threshold to application of calibrated von Frey filaments) was documented one week later. […]

Data set [7] deals with male and female Sprague Dawley rats. Nature of the data set: Latency to hindpaw withdrawal from a focused light heat source after intrathecal injection. Type of data set: in vivo, rat. The note with it: for maximum possible analgesic effect: radiant heat paw withdrawal. The method, then:
Trans-metanicotine was administered via intrathecal catheters inserted in male and female Sprague Dawley rats such that their tips were in the upper lumbar region. Analgesia was determined as an increase in the latency to withdrawal of the hindpaw from a focused light heat source. To prevent injury, duration of 30 seconds was not exceeded. The latency to paw withdrawal was determined both before and after intrathecal injection of trans-metanicotine in these rats, and the data were expressed as % maximum possible effect.

For `Clc1ccc(C2CC3CCC2N3)cn1` (stereo not drawn) [Epibatidine], the “analgesic potency relative to morphine” value in data set [1] is recorded as “three orders of magnitude higher than morphine”. Further, the cardiorespiratory effects result in data set [2] is given as “cardiorespiratory effects similar to those of nicotine”.

Regarding `CNCC/C=C/c1cccnc1` [Metanicotine], in data set [3], the antinociceptive effect entry is recorded as “dose dependent antinociceptive effect”. Further, in data set [4], the “selectivity for central nicotinic receptor subtypes compared to peripheral ganglionic and muscular nicotinic receptors” value was “high selectivity”.

In the case of `CNCC/C=C/c1cccnc1` [trans-metanicotine, (E)-N-methyl-4-(3-pyridinyl)-3-butene-1-amine], the entries for the “average % reduction in withdrawal threshold over the 2 hours after capsaicin injection” value in data set [5] (female rats) and in data set [5] (male rats) were 74+/-5.3% and 64+/-6.7%, respectively. Moreover, the “analgesia in the capsaicin model, comparison of the sexes” value in data set [5] (male and female rats, 50 μg i.t. prior to capsaicin) is on record as “produced analgesia in this model of pain which was similar between the sexes”. The “return of the level of sensitivity to presurgery levels (mean ±SEM)” value in data set [6] (female rats, intrathecal, 100 μg) was determined as 50±4%. In addition, in data set [6] (male rats, intrathecal injection), the “effect on hypersensitivity to light touch (von Frey withdrawal threshold)” value is “no effect”. In addition, the “maximum possible analgesic effect” value in data set [7] (female rats, i.t. injection) was 45%; in data set [7] (male rats, i.t. injection), 20%. The “antinociceptive response in females relative to males” value in data set [7] (i.t. injection, females vs males) is “twice as great”. The “duration of the antinociceptive response” value in data set [7] (male and female rats, i.t. injection) was “about 10 minutes”. Besides, the “effect at 60 μg compared with 20 μg (ceiling effect)” value in data set [7] (male and female rats, i.t., 60 μg) is listed as “failed to be more effective”. Further, in data set [7] (male and female rats, i.t., up to a dose of 20 μg), the “dose dependence of the effect on paw withdrawal latency to a radiant heat stimulus” value is recorded as “dose dependent inhibition of paw withdrawal latency”.

(Values after patent US6248744A, “Method for the treatment of pain, including chronic and female specific pain” (priority 2000, dated 2001).)
